Laboratory results as given in patent publication US20240197761A1, “FUCOSYLATION AND IMMUNE MODULATION IN CANCER” (H. LEE MOFFITT CANCER CENTER AND RESEARCH INSTITUTE, INC., priority 2021, published 2024).

System: fucosylated HLA-DRB1 in WM793 cells
Test: Lectin-mediated proximity ligation assay (L-PLA) of fucosylated HLA-DRB1
Format: cell-based, human
Conditions: vs. DMSO
From the text: FIGS. 22A-221 show Schematic of L-PLA staining and verification of fucosylated HLA-DRB1 staining, which is weakly associated with tumor peripheral CD4+T cells; and the effects of L-fucose on tumor PD-L1 expression (a) Schematic of lectin-mediated proximity ligation analysis (L-PLA) using fucosylated HLA-DRB1 (fuco-HLA-DRB1) as an example. We stained for (i) HLA-DRB1 using […]-HLA-DRB1 followed by (+) oligo-conjugated PLA secondary and (ii) fucosylated glycan using biotinylated (“B”) AAL lectin followed by D-biotin followed by (−) oligo-conjugated PLA secondary. Ligated PLA oligos were subjected to rolling circle amplification PCR (RCA PCR), giving rise to fluorescent punctae. […] Single melanoma marker, AAL-FITC, and HLA-DRB1 channels are shown in white for clearer visualization. […] (d) FFPE melanoma tissues were subjected to L-PLA HLA-DRB1 staining ±500 mM L-fucose wash and subsequent staining with melanoma marker (MART1+SI10 cocktail), and DAPI. Single melanoma marker and fuco-HLA-DRB1 channels are shown in white for clear visualization. Total loss of fuco-HLA-DRB1 signal in the +L-fucose wash tissue confirms the fucose-specificity of L-PLA for fuco-HLA-DRB1. […]
Laboratories (Burlingame, CA)), on coverslips overnight in 4° C. […] Microscopy images were acquired using a Keyence BZ-X710, and images were process and analyzed using FIJI (NIH).

CC(=O)OC1O[C@@H](C)[C@@H](OC(C)=O)[C@@H](OC(C)=O)[C@@H]1F (stereo partly shown) [FUTi, 2F-peracteyl-fucose, reference compound]
L-PLA staining of endogenous fucosylated HLA-DRB1: lost
